Measurements reported in patent US12552768B2, “Pyridinylpyrazole derivative or pharmaceutically acceptable salt thereof and use thereof” (INDUSTRY-UNIVERSITY COOPERATION FOUNDATION HANYANG …, priority 2021, dated 2026).

What was measured:
PLK1(h) = PLK1(h) (Homo sapiens, UniProt P53350); experiment: PLK1 kinase inhibition, radiometric [33P-ATP] assay (IC50 Profiler Express); type: biochemical; conditions: for IC50: 10 μM ATP, 1 μM substrate (casein), 40 minutes at room temperature
Description: (§1) The analysis protocol was as follows. 1 μM substrate (casein), 10 μM ATP and PLK1(h) (5-10 mU) were incubated with 25 mM Tris pH 7.5, 0.02 mM EGTA, 0.66 mg/mL myelin basic protein, 10 mM Mg acetate and [33P-ATP] (specific activity of about 500 cpm/pmol, concentration as required) in a reaction solution with a final volume of 25 μL. The reaction was initiated by adding Mg-ATP mixture. After incubation at room temperature for 40 minutes, the reaction was stopped by adding 5 μL of a 3% phosphoric acid solution. 10 μL of the reaction solution was spotted on a P30 filter mat and washed 3 times for 5 minutes in 75 mM phosphoric acid and once in methanol prior to drying and scintillation counting. The 30 selected protein kinases were ABL1, AKT1, ALK, Aurora A, AXL, AXL (R499C), BRAF (V599E), BTK, c-MER, c-MET, c-Src, CAMKK1, CDK1/cyclin A, EGFR, ERK1, FGFR3, FYN, IGF1R, JAK3, KDR/VEGFR2, LCK, LYN, MEK1, PKA, PLK1, PLK2, PLK3, PLK4/SAK, SYK and TYRO3/SKY4.

[1] = tested on: 30 selected protein kinases; experiment: Selected kinase profiling of 30 protein kinases (Reaction Biology Kinase Hot Spot service); type: biochemical; conditions: screening at 10 μM or 30 μM (FIG. 2)
Description: as §1

Sequence of PLK1(h) (P53350 whole entry): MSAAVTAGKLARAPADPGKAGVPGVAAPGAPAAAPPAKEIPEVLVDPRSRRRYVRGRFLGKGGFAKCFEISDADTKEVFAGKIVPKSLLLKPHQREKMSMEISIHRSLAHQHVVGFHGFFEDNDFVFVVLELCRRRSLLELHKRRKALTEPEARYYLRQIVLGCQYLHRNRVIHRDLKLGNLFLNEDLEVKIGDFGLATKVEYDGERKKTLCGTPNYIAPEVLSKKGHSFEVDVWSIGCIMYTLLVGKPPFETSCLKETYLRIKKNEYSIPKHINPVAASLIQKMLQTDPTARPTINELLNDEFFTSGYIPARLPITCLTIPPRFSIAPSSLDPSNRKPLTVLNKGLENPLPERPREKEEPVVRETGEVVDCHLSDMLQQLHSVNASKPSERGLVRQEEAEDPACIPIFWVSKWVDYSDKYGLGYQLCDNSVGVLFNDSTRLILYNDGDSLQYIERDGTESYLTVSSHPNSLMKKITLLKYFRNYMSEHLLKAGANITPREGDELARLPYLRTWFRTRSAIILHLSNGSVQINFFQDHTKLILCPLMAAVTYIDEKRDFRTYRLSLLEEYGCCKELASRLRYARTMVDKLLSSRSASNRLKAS

Structure (SMILES)	IC50 (PLK1(h)) [nM]	inhibitory activity against PLK1 (in words) (PLK1(h))	selectivity for PLK1 over other protein kinases (in words) [1]
NC(=O)c1nn(-c2ccnc(Nc3ccccc3)c2)cc1OCc1ccccc1 [Compound 13a, 4-(benzyloxy)-1-(2-(phenylamino)pyridin-4-yl)-1H-pyrazole-3-carboxamide]	9890	–	–
NC(=O)c1nn(-c2ccnc(Nc3ccccc3)c2)cc1OCc1ccccc1C(F)(F)F [Compound 13b]	847	–	–
NC(=O)c1nn(-c2ccnc(Nc3ccccc3)c2)cc1OCc1ccc(CO)cc1Cl [Compound 15, 4-((2-chloro-4-(hydroxymethyl)benzyl)oxy)-1-(2-(phenylamino)pyridin-4-yl)-1H-pyrazole-3-carboxamide]	219	highest inhibitory activity against PLK1	superior effect of inhibiting PLK1 selectively as compared to other protein kinases
CN(C)Cc1ccc(COc2cn(-c3ccnc(Nc4ccccc4)c3)nc2C(N)=O)c(Cl)c1 [Compound 16, 4-((2-chloro-4-((dimethylamino)methyl)benzyl)oxy)-1-(2-(phenylamino)pyridin-4-yl)-1H-pyrazole-3-carboxamide]	1010	–	–
COc1ccccc1Nc1cc(-n2cc(OCc3ccc(CO)cc3Cl)c(C(N)=O)n2)ccn1 [Compound 17]	312	–	–
COc1ccccc1Nc1cc(-n2cc(OCc3ccc(CN(C)C)cc3Cl)c(C(N)=O)n2)ccn1 [Compound 18]	998	–	–

Second part, led by results:

IC50 (PLK1(h)) [nM]	inhibitory activity against PLK1 (in words) (PLK1(h))	Structure (SMILES)	selectivity for PLK1 over other protein kinases (in words) [1]
1020	–	COc1ccccc1Nc1cc(-n2cc(OCc3ccccc3)c(C(N)=O)n2)ccn1 [Compound 14a]	–
1310	–	COc1ccccc1Nc1cc(-n2cc(OCc3ccccc3C(F)(F)F)c(C(N)=O)n2)ccn1 [Compound 14b]	–
